The values that follow come from US20010051131A1, “METHODS FOR DELIVERING BIOACTIVE AGENTS” (priority 1996, published 2001).

The subject of one assay is glioblastoma mutiformae. The format is in vivo.
For a further assay, the system named is prostate cancer. The assay can be described thus: Delivery of a radiation sensitizer to treat prostate cancer with air-filled polylactic acid microspheres and ultrasound. As to conditions: 100 mg/m^2 IV over 1 hour, microspheres 5×10^7/minute, endorectal ultrasound 1.5 MegaPascals for 30 minutes.

Description for glioblastoma mutiformae: An acoustically active composition is prepared in a 2 mL vial from an aqueous mixture of phosphatidylcholine vesicles filled with perfluorobutane gas in a manner as described above. The resulting compositions contains about 2×10^9 gas filled vesicles. The vial of gas filled vesicles will be diluted into a 100 mL volume of normal saline such that the final gas filled vesicle concentration is about 2×10^7 gas filled vesicles/mL.
The scalp of a patient suffering from glioblastoma mutiformae will be shaved prior to the procedure. The patient will receive an intravenous infusion of 200 mg/M^2 of Carmustine (BCNU) over a period of about 30 minutes. Fifteen minutes after initiating IV injection of Carmustine, IV infusion of the gas filled vesicle composition will be initiated at a rate of about 2 mL per minute (or about 4×10^7 gas filled vesicles per minute). One minute after initiation of infusion of gas filled vesicles, a 200-kilohertz ultrasound transducer will be turned on, and using an acoustic gel, it will be applied to the shaved area of the scalp. The transducer is focused on the glioblastoma. The energy of the transducer will be adjusted to a peak negative pressure of about 2.5 megaPascals and maintained as such for about 30 minutes (for about 15 minutes after infusion of Carmustine has ceased). The infusion of gas filled vesicles will then be terminated.

As to `O=NN(CCCl)C(=O)NCCCl` [Carmustine], the tumor control result in the assay with glioblastoma mutiformae (200 mg/M^2 IV over about 30 minutes, gas filled vesicles about 2 mL per minute, 200-kilohertz ultrasound, 2.5 megaPascals) is “improved tumor control”. Also, the “delivery of the drug into the tumor tissue” value in the assay with glioblastoma mutiformae (in vivo, iv) was “enhanced delivery of the drug into the tumor tissue”.
As for `CC(=O)O[C@H]1C(=O)[C@@]2(C)[C@H]([C@H](OC(=O)c3ccccc3)[C@]3(O)C[C@H](OC(=O)[C@H](O)[C@@H](NC(=O)c4ccccc4)c4ccccc4)C(C)=C1C3(C)C)[C@]1(OC(C)=O)CO[C@@H]1C[C@@H]2O` [Paclitaxel], the “delivery of drug within the prostate gland” value in the assay with prostate cancer is reported as “increased delivery of drug within the prostate gland”. The tumor control entry in the assay with prostate cancer (then radiation therapy) is given as “Improved tumor control”.
